Results on four compounds are retold here after ChEMBL document CHEMBL3638458, “Amine substituted methanesulfonamide derivatives as vanilloid receptor ligands” (2014).

Molecules are shown by their SMILES.

The target in this experiment is Transient receptor potential cation channel subfamily V member 1 (Homo sapiens, UniProt Q8NER1). As to the kind of experiment: FLIPR Assay: The FLIPR protocol consists of 2 substance additions. First the compounds to be tested (10 μM) are pipetted onto the cells and the Ca2+ influx is compared with the control (capsaicin 10 μM). This provides the result in % activation based on the Ca2+ signal after the addition of 10 μM of capsaicin (CP). After 5 minutes incubation, 100 nM of capsaicin are applied and the Ca2+ influx is also determined. Desensitising agonists and antagonists lead to suppression of the Ca2+ influx. The % inhibition is calculated compared to the maximum achievable inhibition with 10 μM of capsazepine. Starting from the percentage displacement caused by different concentrations of the compounds to be tested of general formula I, IC50 inhibitory concentrations which cause a 50-percent displacement of capsaicin were calculated. K1 values for the test substances were obtained by conversion by means of the Cheng-Prusoff equation (Cheng, Prusoff; Biochem. Pharmacol. 22, 3099-3108, 1973).
Sequence of Transient receptor potential cation channel subfamily V member 1 (Q8NER1 whole entry): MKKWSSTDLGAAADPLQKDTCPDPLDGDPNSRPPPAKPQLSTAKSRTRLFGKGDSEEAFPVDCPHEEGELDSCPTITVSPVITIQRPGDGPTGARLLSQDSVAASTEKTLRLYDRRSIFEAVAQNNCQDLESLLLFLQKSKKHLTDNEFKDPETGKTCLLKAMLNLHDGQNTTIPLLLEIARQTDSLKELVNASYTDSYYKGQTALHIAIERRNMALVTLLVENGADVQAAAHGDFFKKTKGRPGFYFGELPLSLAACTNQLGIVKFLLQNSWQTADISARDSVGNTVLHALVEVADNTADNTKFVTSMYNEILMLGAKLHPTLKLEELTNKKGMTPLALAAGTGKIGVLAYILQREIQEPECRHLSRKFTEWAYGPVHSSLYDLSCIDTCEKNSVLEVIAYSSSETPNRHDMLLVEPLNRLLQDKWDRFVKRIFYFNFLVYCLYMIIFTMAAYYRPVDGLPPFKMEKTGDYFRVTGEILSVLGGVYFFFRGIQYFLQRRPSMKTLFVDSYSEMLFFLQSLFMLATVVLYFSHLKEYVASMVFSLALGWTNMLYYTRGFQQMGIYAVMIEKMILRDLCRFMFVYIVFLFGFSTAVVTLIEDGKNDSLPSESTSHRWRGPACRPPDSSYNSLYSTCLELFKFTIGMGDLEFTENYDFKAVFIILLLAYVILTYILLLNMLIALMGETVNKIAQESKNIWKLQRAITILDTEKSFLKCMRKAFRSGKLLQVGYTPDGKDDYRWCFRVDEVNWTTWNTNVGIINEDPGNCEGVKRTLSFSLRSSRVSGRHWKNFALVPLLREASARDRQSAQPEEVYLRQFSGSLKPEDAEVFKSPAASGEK
On to `Cc1cc(C(C)C(=O)NCc2ccc(C(F)(F)F)nc2N2CCCC2)ccc1CNS(C)(=O)=O` (centres undefined), for which the Ki is 0.05 µM.
In the case of `CCS(=O)(=O)NCc1ccc(C(C)C(=O)NCc2ccc(C(F)(F)F)nc2N2CCC(C)CC2)cc1F` (centres undefined) it was 0.004 µM; in that of `CC1CCN(c2nc(C(F)(F)F)ccc2CNC(=O)C(C)c2cccc(CNS(C)(=O)=O)c2)CC1` (centres undefined), 0.102 µM.
On to `CC(C(=O)NCc1ccc(C(F)(F)F)nc1N1CCCC1)c1ccc(CNS(C)(=O)=O)cc1` (centres undefined), for which the inhibitory constant (Ki) is 0.02 µM.
